Reference: PMC5847527, “Identification of a novel 2-oxindole fluorinated derivative as in vivo antitumor agent for prostate cancer acting via AMPK activation” (Scientific Reports, 2018)
Several values for one entry are separate records, joined by “and”; a condition that tells them apart may be missing. Identical values can stand only once.

Key:
AMPK [1] = target: T1, AMPK (Homo sapiens, UniProt Q13131); test: AMPK and ACC phosphorylation by Western blot in PC-3 cells; type: cell-based; conditions: 25 µM, 1 hour; for Thr172 phosphorylation of AMPK (pAMPK/AMPK): compared to controls
T1 construct: endogenous in cells; host or cells: PC-3, DU145, LNCaP
Description: To investigate the effect of the compounds on AMPK activity at cellular level, compounds 8a-c and 9a-b were selected to perform AMPK phosphorylation assays in human prostate cancer cell lines. We use the PC-3 cell line as it is androgen-resistant and represents the advanced and aggressive stage of prostate cancer. […] AMPK inhibits lipogenic pathway through phosphorylation of its well-known substrate acetyl-CoA carboxylase (ACC). To confirm the modulation of AMPK activity in prostate cells by the compounds, we determined levels of phosphorylated ACC in 2-oxindole fluorinated derivatives-treated cells. […] It is worthy to note that the highest ACC phosphorylation was obtained with compound 8c denoting a powerful activity of this compound in PC-3 cells.
(§1) Figure 2 Effect of 2-oxindole fluorinated derivatives on AMPK activity in prostate cancer cells. (A) PC-3, DU145 and LNCaP cells were treated with 25 µM of the selected 2-oxindole fluorinated derivatives for 1 hour. Levels of the phosphorylated AMPK (pAMPK), phosphorylated ACC (pACC) and their total forms were determined by Western blot. Upper panel, a representative Western blot of three different experiments. β-tubulin (β-Tub) serves as a loading control. […] Lower panels, densitometric analyses of bands represented as the mean of the ratio pAMPK/AMPK or pACC/ACC ± SD of three different experiments. *p < 0.05 compared with the controls by one-way ANOVA followed by Fisher’s LSD test; ^#p < 0.05 compared with 2-oxindole fluorinated derivates or with the AMPK activators AMP or A769662 by one-way ANOVA followed by Tukey test.
(§2) Human prostate cancer epithelial PC-3, DU145 and LNCaP and human prostate normal RWPE-1 cells were purchased from American Type Culture Collection (ATCC CRL-1435 CRL-1740 and CRL 11609 respectively) (Rockville, MD, USA). The human prostate normal PNT2 cell line was purchased to ECACC (European Collection of Cell cultures, Salisbury, SP4 0JG, UK). Cells were routinely grown in RPMI 1640 medium supplemented with 100 IU/ml penicillin G sodium, 100 µg/ml streptomycin sulfate, 0.25 µg/ml amphotericin B (Invitrogen, Paisley, UK) and 10% fetal calf serum. Cells were used at passages between 10–20. For treatment experiments, cells were plated and grown over night, the medium was then replaced with serum-free RPMI 1640 for 24 hours and then incubated with different doses of the compounds for the indicated times.
Cells were lysed in Lysis buffer (50 mM Tris pH 7.4, 0.8 M NaCl, 5 mM MgCl2, 0.1% Triton X-100) containing Protease Inhibitor and Phosphatase inhibitor Cocktails (Roche, Basel, Switzerland). Protein concentrations were measured by BioRad™ protein assay kit (Richmond, CA, USA). Equal amount of protein (20 μg) from each sample was separated on 8% SDS–PAGE gels and transferred to PVDF membranes (BioRad). The membranes were blocked with blocking buffer (1× TBS, 0.1% Tween 20 with 5% w/v fat-free dry milk), washed and incubated with primary antibodies at 4 °C for 12 h. The membranes were subsequently washed with TBS-T (1× TBS and 0.1% Tween 20) and incubated with horseradish peroxidase-conjugated anti-mouse or anti-rabbit IgG antibodies (Sigma, St Louis, MO, USA) at room temperature for 1 h. The immune complex was visualized with an ECL system (Cell Signaling Technology). Films were analyzed by densitometry. The anti-pAMPKα1-thr172, pACC-ser79, pP53, P21, pRaptor and the antibodies against the corresponding total forms were obtained from Cell Signaling Technology (Danvers, MA, USA). The anti-caspase 3 and anti-procaspase 3 were from Santa Cruz Biotechnology (Dallas, Texas, USA). The anti-HIF1A was from Novus Biologicals LLC (Littleton, CO, USA). The anti-Cyclin D1 antibody was obtained from ThermoFisher (Alcobendas, Madrid, Spain). All the other chemicals were obtained from Sigma (St. Louis, MO, USA).

PC-3 cells = test: Cell viability by MTT assay, PC-3; type: cell-based, human; conditions: PC-3, 50 μM
Description: (§3) Figure 3 Comparison of the effect of 2-oxindole fluorinated derivatives on the proliferation of human prostate cancer cells. (A) Normal (PTN2 and RWPE-1) and cancer (PC3,DU145 and LNCaP) prostate cells were treated with different doses of the compounds for 24 hours and cell viability was monitored by MTT assay. […] (C) PC-3, DU145 and LNCaP cells were treated with 25 µM of compound 8c for different times. Values were normalized with the control and represent the mean ± SD of at least three independent experiments. *p < 0.05 and **p < 0.01 compared to control by the Student’s - test.
as §2
(§4) Cell viability was determined by 3-(4,5-dimethylthiazol-2-yl)-2,5-diphenyltetrazolium bromide (MTT) (Sigma-Aldrich) method. In brief, a total of 5000 cells/well were seeded into 12-well plate in a final volume of 1 mL. After treatments, 20 µl MTT solution (5 mg/ml in PBS) was added to the medium and cells were incubated at 37 °C for 4 h. Then, the supernatant was discarded and isopropanol was added to dissolve the formazan crystals. Treatments were carried out in triplicate. The optical density in each well was evaluated by measurement of absorbance at 490 and 650 nm using a microplate reader (ELX 800 Bio-Tek Intruments, INC). IC50 values were calculated using GraphPad Prism vs 6.0 (GraphPad Software, Inc, La Jolla, CA, USA). Cell viability was also determined by counting viable and dead cells by Trypan blue staining. Trypan blue positive and negative cells were counted using a Countess^TM automated cell counter (Invitrogen, Carlsbad, CA, USA). Results were expressed in relation to total number of cells counted.

LNCaP cells = test: Cell viability by MTT assay, LNCaP; type: cell-based, human; conditions: 50 μM
Description: as §3, §2
as §4, with “In brief, a total of 5000 cells/well were seeded into 12-well plate in a final volume of 1 mL. After treatments, 20 µl MTT solution (5 mg/ml in PBS) was added to the medium and cells were incubated at 37 °C for 4 h. Then, the supernatant was discarded and isopropanol was added to dissolve the formazan crystals. Treatments were carried out in triplicate.” left out

RWPE-1 cells = test: Cell viability by MTT assay, RWPE-1 normal prostate cells; type: cell-based, human; conditions: RWPE-1, 50 μM
Description: as §3, §2
as §4, with “In brief, a total of 5000 cells/well were seeded into 12-well plate in a final volume of 1 mL. After treatments, 20 µl MTT solution (5 mg/ml in PBS) was added to the medium and cells were incubated at 37 °C for 4 h. Then, the supernatant was discarded and isopropanol was added to dissolve the formazan crystals. Treatments were carried out in triplicate.” left out

DU145 cells = test: Cell viability by MTT assay, DU145; type: cell-based, human; conditions: DU145, 50 μM
Description: as §3, §2, §4

PNT2 cells = test: Cell viability by MTT assay, PNT2 normal prostate cells; type: cell-based, human; conditions: PNT2, 50 μM
Description: as §3, §2
as §4, with “In brief, a total of 5000 cells/well were seeded into 12-well plate in a final volume of 1 mL. After treatments, 20 µl MTT solution (5 mg/ml in PBS) was added to the medium and cells were incubated at 37 °C for 4 h. Then, the supernatant was discarded and isopropanol was added to dissolve the formazan crystals. Treatments were carried out in triplicate.” left out

[2] = system: PTN2, RWPE-1, PC3, DU145 and LNCaP prostate cells; test: Cell viability by MTT assay, statements for the five cell lines together; type: cell-based, human; conditions: 1–100 µM, dose-dependent, 24 hours
AMPK [3] = test: AMPK and ACC phosphorylation by Western blot in LNCaP cells; type: cell-based, human; conditions: 25 µM, 1 hour
Description: as §1
Similar results were obtained although AMPK stimulation by compound 8c was not so strong (Fig. 2A). […]
Cells were lysed in Lysis buffer (50 mM Tris pH 7.4, 0.8 M NaCl, 5 mM MgCl2, 0.1% Triton X-100) containing Protease Inhibitor and Phosphatase inhibitor Cocktails (Roche, Basel, Switzerland). Protein concentrations were measured by BioRad™ protein assay kit (Richmond, CA, USA). […] Films were analyzed by densitometry. […]

AMPK [4] = test: Characterization of AMPK activation by Western blot in PC-3 and LNCaP cells (Dorsomorphin, siRNA); type: cell-based, human; conditions: PC-3 and LNCaP cells, 5 μM Dorsomorphin + 25 µM 8c, 1 h and 24 h
Description: To further confirm the compound 8c-induced activation of AMPK, PC-3 and LNCaP cells were incubated with the compound for 1 h and 24 hours in the presence of the AMPK inhibitor Dorsomorphin. […] Accordingly, ACC phosphorylation was increased at 1 h and 24 h and prevented by Dorsomorphin in both cell lines. AMPK inhibits mTORC1 through phosphorylation of Raptor on two well-conserved serine residues (ser722 and ser792) inducing cell-cycle arrest in response to an energy stress. To further support the 8c-induced AMPK activation, we determined Raptor phosphorylation on Ser792 in prostate cells.
Figure 5 AMPK activation by compound 8c in prostate cancer cells. (A) PC-3 and LNCaP cells were treated with vehicle, 25 µM compound 8c, 25 µM compound 8c + 5 μM Dorsomorphin (8c + D) or 5 μM Dorsomorphin (D), for 1 hour or 24 hours and levels of the phosphorylated AMPK (pAMPK), phosphorylated ACC (pACC), phosphorylated Raptor (pRaptor) forms and HIF1α were determined by Western blot. Upper panel, representative Western blot of three different experiments. β-tubulin (β-Tub) serves as a loading control. Lower panel, densitometric analyses of bands represented as the mean of the ratio pAMPK/AMPK or pACC/ACC. (B) Cell viability monitored by MTT assay in PC-3 and LNCaP cells treated with vehicle, 25 µM and 50 μM compound 8c alone or in the presence of 5 μM Dorsomorphin or transfected with control siRNA (siC) or α1AMPK-selective siRNA (siAMPK). (C) LNCaP cells were treated with vehicle, 25 µM compound 8c, 25 µM compound 8c + 5 μM Dorsomorphin (8c + D) or 5 μM Dorsomorphin (D), for 24 hours and levels of Androgen Receptor (AR), Prostate specific antigen (PSA) and Prostate specific membrane antigen (PSMA) were determined by Western blot.Values were normalized with the control and represent the mean ± SD of at least three independent experiments. *p < 0.05 and **p < 0.01 compared to control and ^#p < 0.05 and ^##p < 0.01 compared with 8c-treated group by the Student’s t-test.
AMPK is a heterotrimeric protein composed by catalytic (α) and regulatory (β and γ) subunits. In mammals, different isoforms of α, β and γ subunits can associate to produce up to 12 AMPK different combinations. […]
Figure 6 Phosphorylation of AMPK and ACC in prostate cells transfected with selective AMPKα1 or AMPKα2 siRNA. […] Levels of the phosphorylated AMPK (pAMPK), phosphorylated ACC (pACC) and their total forms were determined by Western blot. […]
Cells were lysed in Lysis buffer (50 mM Tris pH 7.4, 0.8 M NaCl, 5 mM MgCl2, 0.1% Triton X-100) containing Protease Inhibitor and Phosphatase inhibitor Cocktails (Roche, Basel, Switzerland). Protein concentrations were measured by BioRad™ protein assay kit (Richmond, CA, USA). […]

T1 sequence (Q13131 whole entry): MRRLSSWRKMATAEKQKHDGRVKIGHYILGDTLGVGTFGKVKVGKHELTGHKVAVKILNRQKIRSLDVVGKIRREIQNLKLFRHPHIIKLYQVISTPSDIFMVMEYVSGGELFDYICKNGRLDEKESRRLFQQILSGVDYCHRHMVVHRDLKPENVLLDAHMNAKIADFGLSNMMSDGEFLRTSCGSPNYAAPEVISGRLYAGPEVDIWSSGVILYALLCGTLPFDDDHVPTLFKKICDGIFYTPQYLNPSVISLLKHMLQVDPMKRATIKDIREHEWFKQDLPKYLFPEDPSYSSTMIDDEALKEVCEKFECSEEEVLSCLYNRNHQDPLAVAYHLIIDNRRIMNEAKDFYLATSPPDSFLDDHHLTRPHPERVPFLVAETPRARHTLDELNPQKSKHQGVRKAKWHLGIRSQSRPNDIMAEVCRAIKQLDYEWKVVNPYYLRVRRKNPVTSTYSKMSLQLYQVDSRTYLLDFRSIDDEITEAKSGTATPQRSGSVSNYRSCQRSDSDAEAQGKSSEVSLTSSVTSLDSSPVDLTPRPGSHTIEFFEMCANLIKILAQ
T1 sequence (Q9Y478 2-270 partner limits assumed): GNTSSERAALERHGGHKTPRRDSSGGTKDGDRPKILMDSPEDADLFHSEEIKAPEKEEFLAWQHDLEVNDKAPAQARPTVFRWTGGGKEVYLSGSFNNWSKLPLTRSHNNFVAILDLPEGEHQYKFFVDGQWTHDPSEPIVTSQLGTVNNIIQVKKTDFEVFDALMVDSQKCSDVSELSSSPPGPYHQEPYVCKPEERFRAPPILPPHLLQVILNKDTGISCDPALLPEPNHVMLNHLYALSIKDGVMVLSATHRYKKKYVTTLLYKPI
T1 sequence (P54619 whole entry partner): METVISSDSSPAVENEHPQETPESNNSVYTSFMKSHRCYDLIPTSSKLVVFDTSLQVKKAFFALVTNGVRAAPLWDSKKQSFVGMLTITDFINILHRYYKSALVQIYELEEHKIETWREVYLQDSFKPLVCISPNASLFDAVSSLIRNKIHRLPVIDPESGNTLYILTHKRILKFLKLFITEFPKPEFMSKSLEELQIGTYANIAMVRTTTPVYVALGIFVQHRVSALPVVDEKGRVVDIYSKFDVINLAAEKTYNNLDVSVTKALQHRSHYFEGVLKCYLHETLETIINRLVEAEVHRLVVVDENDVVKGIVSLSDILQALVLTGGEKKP

Row | ACC phosphorylation (pACC/ACC) (AMPK [1]) | Compound | Thr172 phosphorylation of AMPK (pAMPK/AMPK) (AMPK [1]) | inhibitory efficacy on cells viability at 50 μM (PC-3 cells) | inhibitory efficacy on cells viability at 50 μM (DU145 cells) | also measured
1 | inhibited ACC phosphorylation | O=C1Nc2ccccc2C1(F)Cc1ccc[nH]1 (stereo not shown) [Compound 8a, 3-((1H-pyrrol-2-yl)methyl)-3-fluoroindolin-2-one] | slightly, although significantly, inhibited AMPK phosphorylation |  |  | melting point: 143 to 146 °C
2 | inhibited ACC phosphorylation | O=C1Nc2ccc(Cl)cc2C1(F)Cc1ccc(N2CCCC2)cc1 (stereo not shown) [Compound 8b, 5-chloro-3-fluoro-3-(4-(pyrrolidin-1-yl)benzyl)indolin-2-one] | slightly, although significantly, inhibited AMPK phosphorylation | 3% | 14% | inhibitory efficacy on cells viability at 50 μM (LNCaP cells): 11%; inhibitory efficacy on cells viability at 50 μM (RWPE-1 cells): 17%; inhibitory efficacy on cells viability at 50 μM (PNT2 cells): 0%
3 | inhibited ACC phosphorylation | O=C1N(Cc2ccccc2)c2ccccc2C1(F)Cc1ccc[nH]1 (stereo not shown) [Compound 9a, 3-((1H-pyrrol-2-yl)methyl)-1-benzyl-3-fluoroindolin-2-one] | slightly, although significantly, inhibited AMPK phosphorylation |  |  | inhibition of cell proliferation [2]: effectively inhibited cell proliferation
4 | augmented pACC | O=C1N(Cc2ccccc2)c2ccc(Cl)cc2C1(F)Cc1ccc(N2CCCC2)cc1 (stereo not shown) [Compound 9b, 1-benzyl-5-chloro-3-fluoro-3-(4-(pyrrolidin-1-yl)benzyl)indolin-2-one] | weak AMPK activation | 27% and 23% | 14% and 17% | AMPK phosphorylation (pAMPK/AMPK) (AMPK [3]): slightly increases AMPK phosphorylation in PC-3 cells but not in LNCaP cells
5 |  | c1cc(-c2cnn3cc(-c4ccc(OCCN5CCCCC5)cc4)cnc23)ccn1 [Dorsomorphin, reference compound] |  |  |  | effect on AMPK activation by compound 8c (AMPK [4]): blocked AMPK activation by compound 8c both at 1 h and 24 h
